According to patent publication US20260109732A1, “LIPID AMINES” (ModernaTX, Inc., priority 2021, published 2026):
Where a name gives a salt, the structure may show the parent alone.

Key:
[1] = Encapsulation of mRNA nanoparticles with lipid amines using Ribogreen assay; format: physicochemical
In short: (§1)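 Ionizable lipid nanoparticles (IL1:DSPC:cholesterol:PEG-DMG-2K) formed by vortex mixing at pH 4, loaded with luciferase or CFTR mRNA at N:P 4.93, neutralized with TRIS pH 8.12, then modified with lipid amine SA50 at pH 7.5. Particle diameter and PDI read by DLS; mRNA encapsulation by Ribogreen assay.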

HeLa cells [2] = experiment: Luciferase Protein Expression Assay in HeLa Cells; format: cell-based, Human; details: LNPs encapsulating Luciferase mRNA, 25 ng per well, N=4 wells; 5 h serum-free then 24 h; ONE-Glo
In short: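 HeLa cells received LNPs carrying luciferase mRNA (25 ng per well) or PBS in serum-free MEM for 5 h, then complete MEM for a further 24 h. Luciferase then read by ONE-Glo luminescence after lysis and reported as average RLU of 4 replicate wells.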

HeLa cells [3] = experiment: CFTR Protein Expression Assay in HeLa Cells; format: cell-based, Human; details: LNPs encapsulating CFTR mRNA, N=4 wells; 5 h serum-free then 24 h; immunofluorescence vs PBS control
In short: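 HeLa cells dosed with CFTR mRNA LNPs (70 mM NaCl final buffer matrix) in serum-free MEM for 5 h, then complete MEM for 24 h. Fixed cells immunostained with anti-CFTR monoclonal and Alexa 488 secondary, imaged confocally; CFTR intensity per cell expressed as fold-change versus PBS buffer control, N=4 wells.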

[4] = Diameter and PDI from DLS measurements of mRNA nanoparticles with lipid amines; format: physicochemical
In short: as §1

[5] = CFTR mRNA nanoparticle with lipid amine
[6] = Luciferase mRNA nanoparticle modified with lipid amine

Row | Compound | % Encapsulation (Ribogreen) [1, 5] [%] | % Encapsulation (Ribogreen) [1, 6] [%] | Average Relative Light Units ± Standard Deviation (HeLa cells [2]) [Relative Light Units] | Average fold-change in CFTR signal intensity per cell compared to buffer control ± standard deviation (HeLa cells [3]) [fold-change] | Diameter (nm) [4, 5] [nm] | PDI [4, 5] | Diameter (nm) [4, 6] [nm] | PDI [4, 6]
1 | CC(C)CCC[C@@H](C)[C@H]1CC[C@H]2[C@@H]3CC=C4C[C@@H](SSCCC(=O)N(CCCCNCCC(C)(C)N)CCC(C)(C)N)CC[C@]4(C)[C@H]3CC[C@]12C.Cl.Cl.Cl [SA138, N-(3-amino-3-methylbutyl)-N-(4-((3-amino-3-methylbutyl)amino)butyl)-3-(((3S,8S,9S,10R,13R,14S,17R)-10,13-dimethyl-17-((R)-6-methylheptan-2-yl)-2,3,4,7,8,9,10,11,12,13,14,15,16,17-tetradecahydro-1H-cyclopenta[a]phenanthren-3-yl)disulfaneyl)propanamide trihydrochloride] | 96.4 | 99.2 | 22039.8 ± 8550.1 | 12.1 ± 1.1 | 89.6 | 0.12 | 72 | 0.19
2 | CC(C)CCC[C@@H](C)[C@H]1CC[C@H]2[C@@H]3CC=C4C[C@@H](SSCCC(=O)N(CCCCCCCC(C)(C)N)CCC(C)(C)N)CC[C@]4(C)[C@H]3CC[C@]12C.Cl.Cl [SA139, N-(3-amino-3-methylbutyl)-N-(8-amino-8-methylnonyl)-3-(((3S,8S,9S,10R,13R,14S,17R)-10,13-dimethyl-17-((R)-6-methylheptan-2-yl)-2,3,4,7,8,9,10,11,12,13,14,15,16,17-tetradecahydro-1H-cyclopenta[a]phenanthren-3-yl)disulfaneyl)propanamide dihydrochloride] | 99.4 | 99.4 | 24497.9 ± 3998.9 | 13.3 ± 1.2 | 68.9 | 0.12 | 72 | 0.12
3 | CC(C)CCC[C@@H](C)[C@H]1CC[C@H]2[C@@H]3CC=C4C[C@@H](OC(=O)CCCC(=O)N(CCCCCCCC(C)(C)N)CCC(C)(C)N)CC[C@]4(C)[C@H]3CC[C@]12C.Cl.Cl [SA141, (3S,8S,9S,10R,13R,14S,17R)-10,13-dimethyl-17-((R)-6-methylheptan-2-yl)-2,3,4,7,8,9,10,11,12,13,14,15,16,17-tetradecahydro-1H-cyclopenta[a]phenanthren-3-yl 5-((3-amino-3-methylbutyl)(8-amino-8-methylnonyl)amino)-5-oxopentanoate dihydrochloride] | 98.9 | 98.9 | 35801.9 ± 8884.3 | 14.9 ± 0.6 | 70.8 | 0.12 | 73 | 0.15
4 | CC(C)CCC[C@@H](C)[C@H]1CC[C@H]2[C@@H]3CC=C4C[C@@H](OC(=O)CCCC(=O)N(CCCCCCCC(C)N)CCC(C)N)CC[C@]4(C)[C@H]3CC[C@]12C (stereo partly drawn) [SA142, (3S,8S,9S,10R,13R,14S,17R)-10,13-dimethyl-17-((R)-6-methylheptan-2-yl)-2,3,4,7,8,9,10,11,12,13,14,15,16,17-tetradecahydro-1H-cyclopenta[a]phenanthren-3-yl 5-((3-aminobutyl)(8-aminononyl)amino)-5-oxopentanoate dihydrochloride] | 99.0 | 99.5 | 44925.4 ± 6006.5 | 20.0 ± 1.0 | 69.5 | 0.14 | 72 | 0.19
5 | CC[C@H](CC[C@@H](C)[C@H]1CC[C@H]2[C@@H]3CC=C4C[C@@H](OC(=O)N(CCCCCCCC(C)N)CCC(C)N)CC[C@]4(C)[C@H]3CC[C@]12C)C(C)C (stereo partly drawn) [SA144, (3S,8S,9S,10R,13R,14S,17R)-17-((2R,5R)-5-ethyl-6-methylheptan-2-yl)-10,13-dimethyl-2,3,4,7,8,9,10,11,12,13,14,15,16,17-tetradecahydro-1H-cyclopenta[a]phenanthren-3-yl (3-aminobutyl)(8-aminononyl)carbamate dihydrochloride] | 98.8 | 99.2 | 33357.5 ± 5288.8 | 17.9 ± 2.1 | 69.3 | 0.12 | 71 | 0.15
6 | CC(C)CCC[C@@H](C)[C@H]1CC[C@H]2[C@@H]3CC=C4C[C@@H](SSCCC(=O)N(CCCC(C)(C)N)CCC(C)(C)N)CC[C@]4(C)[C@H]3CC[C@]12C [SA145, N-(3-amino-3-methylbutyl)-N-(4-amino-4-methylpentyl)-3-(((3S,8S,9S,10R,13R,14S,17R)-10,13-dimethyl-17-((R)-6-methylheptan-2-yl)-2,3,4,7,8,9,10,11,12,13,14,15,16,17-tetradecahydro-1H-cyclopenta[a]phenanthren-3-yl)disulfaneyl)propanamide dihydrochloride] | 99.8 | 99.7 | 36033.7 ± 4254.5 | 14.4 ± 0.6 | 71.8 | 0.14 | 77 | 0.17
7 | CC[C@H](CC[C@@H](C)[C@H]1CC[C@H]2[C@@H]3CC=C4C[C@@H](OC(=O)N(CCCC(C)(C)N)CCC(C)(C)N)CC[C@]4(C)[C@H]3CC[C@]12C)C(C)C [SA149, (3S,8S,9S,10R,13R,14S,17R)-17-((2R,5R)-5-ethyl-6-methylheptan-2-yl)-10,13-dimethyl-2,3,4,7,8,9,10,11,12,13,14,15,16,17-tetradecahydro-1H-cyclopenta[a]phenanthren-3-yl (3-amino-3-methylbutyl)(4-amino-4-methylpentyl)carbamate dihydrochloride] | 99.9 | 99.5 | 31035.2 ± 6333.7 | 15.8 ± 1.4 | 72.3 | 0.14 | 75 | 0.15
8 | CC(C)CCC[C@@H](C)[C@H]1CC[C@H]2[C@@H]3CC=C4C[C@@H](OC(=O)N(CCCCCCCC(C)N)CCC(C)N)CC[C@]4(C)[C@H]3CC[C@]12C (stereo partly drawn) [SA151, (3S,8S,9S,10R,13R,14S,17R)-10,13-dimethyl-17-((R)-6-methylheptan-2-yl)-2,3,4,7,8,9,10,11,12,13,14,15,16,17-tetradecahydro-1H-cyclopenta[a]phenanthren-3-yl (3-aminobutyl)(8-aminononyl)carbamate dihydrochloride] | 98.2 | 95.8 | 36345.5 ± 6730.7 | 20.2 ± 1.3 | 72.0 | 0.14 | 72 | 0.12
9 | CC(C)CCC[C@@H](C)[C@H]1CC[C@H]2[C@@H]3CC=C4C[C@@H](OC(=O)N(CCCCCCCC(C)(C)N)CCC(C)(C)N)CC[C@]4(C)[C@H]3CC[C@]12C [SA152, (3S,8S,9S,10R,13R,14S,17R)-10,13-dimethyl-17-((R)-6-methylheptan-2-yl)-2,3,4,7,8,9,10,11,12,13,14,15,16,17-tetradecahydro-1H-cyclopenta[a]phenanthren-3-yl (3-amino-3-methylbutyl)(8-amino-8-methylnonyl)carbamate dihydrochloride] | 98.4 | 98.2 | 41692.8 ± 9336.8 | 20.6 ± 1.6 | 71.6 | 0.14 | 78 | 0.15
10 | CC[C@H](CC[C@@H](C)[C@H]1CC[C@H]2[C@@H]3CC=C4C[C@@H](OC(=O)N(CCCCCCCC(C)(C)N)CCC(C)(C)N)CC[C@]4(C)[C@H]3CC[C@]12C)C(C)C [SA153, (3S,8S,9S,10R,13R,14S,17R)-17-((2R,5R)-5-ethyl-6-methylheptan-2-yl)-10,13-dimethyl-2,3,4,7,8,9,10,11,12,13,14,15,16,17-tetradecahydro-1H-cyclopenta[a]phenanthren-3-yl (3-amino-3-methylbutyl)(8-amino-8-methylnonyl)carbamate dihydrochloride] | 98.5 | 95.8 | 35859.3 ± 5894.9 | 17.5 ± 1.4 | 69.3 | 0.12 | 72 | 0.15
